Laboratory results published in article PMC12056667 (Chemical Science, 2025).

Biological target: Tet(X4) (Escherichia coli, UniProt A0A3T0V9Y5)
Assay: Absorbance activity assay (tigecycline turnover, A400)
Type: biochemical
Source text: We then tested the binding of reported type 1 TDase inhibitors to Tet(X4) (Fig. 3f, ESI Fig. S17 ^†).[33,38,39] […] These compounds gave similar apparent IC50^app values, in accord with trends in IC50 measurements performed by Markley et al.[33] […] We also developed a complementary endpoint activity assay where the turnover of tigecycline by Tet(X4) in a 96-well plate was quenched by addition of 1%v/v formic acid and analysed chromatographically. The peak integrals of tigecycline and its hydroxylated degradation product at 254 nm following UPLC analysis were measured to determine turnover (Fig. 5a). As this method separates components by chromatography, it enables IC50 measurements independent of potential interference from UV-active inhibitors (Fig. 5b). […] The apparent synergy of AZT with tetracyclines against whole cells expressing Tet(X4)[40] is therefore interesting and may derive from the proposed ability of AZT to interfere with DNA synthesis in bacteria,[40,53] or other unidentified mechanisms. […] Note, however, that plumbagin and 2-MNQ are naphthoquinones, which are well-characterised redox-active pan-assay interference (PAINS) moieties.[54]
233 Absorbance Activity Assays
234 A solution containing 100 mM TAPS (pH 8.5), 2 µM FAD, 10 mM MgCl2 and 100 nM Tet(X4) was
235 dispensed into a 384 well µClear plate (Greiner Bio-One), 25 µL per well, using a microplate reagent
236 dispenser. A 3-fold, 10-point dilution series of the substrates and inhibitors was made in DMSO with
237 the highest concentration of 50 mM, unless otherwise stated, and transferred to the enzyme solution in
238 technical quadruplicate using a CyBi-Well (CyBio) liquid-handling robot (1 µL per well). On each plate,
239 a column of no enzyme negative controls and no inhibitor (DMSO only) positive controls were
240 included. The plate was briefly centrifuged (1000 rpm), then incubated (ambient temperature,15 min).
241 A solution containing 100 mM TAPS (pH 8.5), 50 µM tigecycline and 500 µM NADPH was then
242 dispensed, with 25 µL per well. The plate was briefly centrifuged (1000 rpm), then transferred to a
243 CLARIOstar Plus Microplate reader. The absorbance was monitored at wavelength […] over the
244 course of 2 hours (23 flashes / cycle, 180 s cycle time, 41 data points, 25 ° C). The initial rate was
245 calculated by measuring the rate of change of A400 during the initial linear regime. Initial rates were
246 normalised between positive and negative controls. The normalised % response was plotted as a
247 function of log10([Inhibitor]) in molar units, and the IC50 was determined as above. […]

For `Cc1c2c(c(O)c3c(O)cccc13)C(=O)[C@]1(O)C(=O)C(C(N)=O)=C(O)[C@@H](N(C)C)[C@@H]1C2` [Anhydrotetracycline], the IC50 was 7.6 ± 2 µM.
